Measurements from patent US20130122541A1, “MICROORGANISM PRODUCTION OF HIGH-VALUE CHEMICAL PRODUCTS, AND RELATED COMPOSITIONS, METHODS AND SYSTEMS” (The Regents of the University of Colorado, priority 2010, published 2013).
In brackets after ≈: the same amount, converted by molar mass. Where two headings read alike, the source gives them in different places.

Assays:
[1] = system: E. coli K12+pSMART-LC-Kan-cynTS; assay type: cell-based; conditions: Escherichia coli, 24 h, read-out: Minimum inhibitory concentration (MIC) of 3-HP for E. coli K12+pSMART-LC-Kan-cynTS in M9 minimal media
Protocol: Overnight cultures of strains were grown in 5 ml LB (with antibiotic where appropriate) at 37° C. in a shaking incubator. A 1 v/v % was used to inoculate 10 mL of M9 minimal media. After the cells reached mid-exponential phase, the culture was diluted to an OD600 of 0.200. The cells were further diluted 1:20 and a 10 ul aliquot was used to inoculate each well (˜10^4 cells per well). […] The MIC endpoint is the lowest concentration of compound at which there was no visible growth.
Purified plasmid was retransformed into E. coli K12 by standard techniques and MIC measured as described in Example 37.

[2] = system: E. coli; assay: microbe, parasite or virus in culture; assay type: cell-based; conditions: for % Increase Over Control: anaerobic; for MIC: Escherichia coli
Protocol: For MIC evaluations, the final results are expressed in chemical agent concentrations determined by analysis of the stock solution by HPLC (i.e., see Subsection IIIb).
The minimum inhibitory concentration (MIC) was determined anaerobically in a 96 well-plate format. […] Media supplements were added according to levels reported in the Supplements Table, where specified. Overnight cultures of strains were grown in triplicate in 5 mL LB (with antibiotic where appropriate). A 1% (v/v) inoculum was introduced into a 5 ml culture of M9 minimal media.

**Q.** How did the MIC [1] turn out when `O=C(O)CCO` [3-HP, 3-hydroxypropionic acid] was run?
**A.** Its MIC is 50 mg/mL (≈ 555 mM).

**Q.** And the “% Increase Over Control” value ([2]; BW25113, EZ Rich media vs M9 control)?
**A.** The value was 150%.

**Q.** And the MIC ([2]; BW25113, read-out: MIC Assay Result (g/L 3-HP), BW25113, EZ Rich media, supplements none, anaerobic)?
**A.** The MIC was 75 g/L (≈ 833 mM).

**Q.** And the MIC ([2]; BW25113, read-out: MIC Assay Result (g/L 3-HP), BW25113, M9, supplements none (control), anaerobic)?
**A.** Its MIC is 30 g/L (≈ 333 mM).

**Q.** And the MIC ([2]; BW25113, read-out: MIC Assay Result (g/L 3-HP), anaerobic, strain BX_00002.0: BW25113 wild type, pKK223-mcs1 (control), M9 + Amp (100 μg/mL))?
**A.** Its MIC is 15 g/L.

**Q.** And the MIC ([2]; BW25113, read-out: MIC Assay Result (g/L 3-HP), anaerobic, strain BX_00003.0: BW25113 wild type, pBT-3 (control), M9 + Cm (20 μg/mL))?
**A.** Its MIC is 15 g/L.

**Q.** What about the MIC ([2]; BW25113, read-out: MIC Assay Result (g/L 3-HP), anaerobic, strain BX_00118.0: BW25113 wild type, pJ251 (control), M9 + Kan (20 μg/mL)) of the same compound?
**A.** The MIC was 15 g/L.

**Q.** And the MIC ([2]; BW25113, read-out: MIC Assay Result (g/L 3-HP), anaerobic, strain BX_00138.0: BW25113 wild type, pSmart-LC-Kan (control), M9 + Kan (20 μg/mLl))?
**A.** The MIC was 25 g/L.

**Q.** What about the MIC ([2]; BW25113, read-out: MIC Assay Result (g/L 3-HP), anaerobic, strain BX_00144.0: BW25113 wild type, pSmart-HC-Amp (control), M9 + Amp (100 μg/mL)) of the same compound?
**A.** The MIC was 25 g/L.

**Q.** What about the MIC ([2]; BW25113, read-out: MIC Assay Result (g/L 3-HP), anaerobic, strain BX_00319.0: BW25113 wild type, pK223-aroH, M9 + Amp 100 μg/mL + 1 mM IPTG) of the same compound?
**A.** Its MIC is 20 g/L.

**Q.** What about the MIC ([2]; BW25113, read-out: MIC Assay Result (g/L 3-HP), anaerobic, strain BX_00320.0: BW25113 wild type, pK223-metE C645A, M9 + Amp 100 μg/mL + 1 mM IPTG) of the same compound?
**A.** Its MIC is 20 g/L.

**Q.** What about the MIC ([2]; BW25113, read-out: MIC Assay Result (g/L 3-HP), anaerobic, strain BX_00322.0: BW25113 wild type, pJ61-speFED, M9 + Kan 20 μg/mL) of the same compound?
**A.** The MIC was 25 g/L.

**Q.** And the MIC ([2]; BW25113, read-out: MIC Assay Result (g/L 3-HP), anaerobic, strain BX_00323.0: BW25113 wild type, pJ61-aroG, M9 + Kan 20 μg/mL)?
**A.** The MIC was 20 g/L.

**Q.** What about the MIC ([2]; BW25113, read-out: MIC Assay Result (g/L 3-HP), anaerobic, strain BX_00324.0: BW25113 wild type, pJ61-thrA, M9 + Kan 20 μg/mL) of the same compound?
**A.** The MIC was 20 g/L.

**Q.** What about the MIC ([2]; BW25113, read-out: MIC Assay Result (g/L 3-HP), anaerobic, strain BX_00325.0: BW25113 wild type, pJ61-asd, M9 + Kan 20 μg/mL) of the same compound?
**A.** Its MIC is 20 g/L.

**Q.** And the MIC ([2]; BW25113, read-out: MIC Assay Result (g/L 3-HP), anaerobic, strain BX_00326.0: BW25113 wild type, pJ61-ilvA, M9 + Kan 20 μg/mL)?
**A.** Its MIC is 20 g/L.

**Q.** What about the MIC ([2]; BW25113, read-out: MIC Assay Result (g/L 3-HP), anaerobic, strain BX_00327.0: BW25113 wild type, pJ61-cysM, M9 + Kan 20 μg/mL) of the same compound?
**A.** Its MIC is 20 g/L.

**Q.** And the MIC ([2]; BW25113, read-out: MIC Assay Result (g/L 3-HP), anaerobic, strain BX_00357.0: BW25113 wild type, pKK223-aroH*445, M9 + Amp 100 μg/mL + 1 mM IPTG)?
**A.** Its MIC is 20 g/L.

**Q.** What about the MIC ([2]; BW25113, read-out: MIC Assay Result (g/L 3-HP), anaerobic, strain BX_00358.0: BW25113 wild type, pKK223-aroH*447, M9 + Amp 100 μg/mL + 1 mM IPTG) of the same compound?
**A.** Its MIC is 20 g/L.

**Q.** And the MIC ([2]; BW25113, read-out: MIC Assay Result (g/L 3-HP), anaerobic, strain BX_00359.0: BW25113 wild type, pKK223-aroH*457, M9 + Amp 100 μg/mL + 1 mM IPTG)?
**A.** Its MIC is 20 g/L.

**Q.** What about the MIC ([2]; BW25113, read-out: MIC Assay Result (g/L 3-HP), anaerobic, strain BX_00360.0: BW25113 wild type, pACYC177 (Kan only)-cynTS, M9 + Kan 20 μg/mL) of the same compound?
**A.** The MIC was 20 g/L.

**Q.** What about the MIC ([2]; BW25113, read-out: MIC Assay Result (g/L 3-HP), anaerobic, strain BX_00362.0: BW25113 wild type, pACYC177 (Kan only)-aroH, M9 + Kan 20 μg/mL + 1 mM IPTG) of the same compound?
**A.** The MIC was 20 g/L.

**Q.** And the MIC ([2]; BW25113, read-out: MIC Assay Result (g/L 3-HP), anaerobic, strain BX_00363.0: BW25113 wild type, pACYC177 (Kan only)-speB, M9 + Kan 20 μg/mL)?
**A.** The MIC was 20 g/L.

**Q.** What about the MIC ([2]; BW25113, read-out: MIC Assay Result (g/L 3-HP), anaerobic, strain BX_00364.0: BW25113 wild type, pACYC177 (Kan only)-metE, M9 + Kan 20 μg/mL + 1 mM IPTG) of the same compound?
**A.** The MIC was 20 g/L.

**Q.** What about the MIC ([2]; BW25113, read-out: MIC Assay Result (g/L 3-HP), anaerobic, strain BX_00365.0: BW25113 wild type, pACYC177 (Kan only)-metC, M9 + Kan 20 μg/mL) of the same compound?
**A.** The MIC was 20 g/L.

**Q.** What about the MIC ([2]; BW25113, read-out: MIC Assay Result (g/L 3-HP), anaerobic, strain BX_00368.0: BW25113 wild type, pBT-3-cynTS, M9 + Cm (20 μg/mL)) of the same compound?
**A.** Its MIC is 20 g/L.

**Q.** And the MIC ([2]; BW25113, read-out: MIC Assay Result (g/L 3-HP), anaerobic, strain BX_00426.0: BW25113 ΔnrdR::frt, pSmart-HC-Amp-cadA, M9 + Amp (100 μg/mL))?
**A.** The MIC was 26.7 g/L.

**Q.** And the “% Increase Over Control” value ([2]; strain BX_00311.0 (pSmart-LC-Kan-glyA-ORF))?
**A.** Its value is 20%.

**Q.** What about the “% Increase Over Control” value ([2]; strain BX_00319.0 (pK223-aroH)) of the same compound?
**A.** The value was 33%.

**Q.** What about the “% Increase Over Control” value ([2]; strain BX_00320.0 (pK223-metE C645A)) of the same compound?
**A.** The value was 33%.

**Q.** What about the “% Increase Over Control” value ([2]; strain BX_00321.0 (pK223-ct-his-thrA)) of the same compound?
**A.** The value was 33%.

**Q.** And the “% Increase Over Control” value ([2]; strain BX_00322.0 (pJ61-speFED))?
**A.** Its value is 67%.

**Q.** What about the “% Increase Over Control” value ([2]; strain BX_00323.0 (pJ61-aroG)) of the same compound?
**A.** Its value is 33%.

**Q.** What about the “% Increase Over Control” value ([2]; strain BX_00324.0 (pJ61-thrA)) of the same compound?
**A.** Its value is 33%.

**Q.** And the “% Increase Over Control” value ([2]; strain BX_00325.0 (pJ61-asd))?
**A.** Its value is 33%.

**Q.** And the “% Increase Over Control” value ([2]; strain BX_00326.0 (pJ61-ilvA))?
**A.** The value was 33%.

**Q.** And the “% Increase Over Control” value ([2]; strain BX_00327.0 (pJ61-cysM))?
**A.** The value was 33%.

**Q.** And the “% Increase Over Control” value ([2]; strain BX_00357.0 (pKK223-aroH*445))?
**A.** Its value is 33%.

**Q.** What about the “% Increase Over Control” value ([2]; strain BX_00358.0 (pKK223-aroH*447)) of the same compound?
**A.** The value was 33%.
